# Source: patent publication US20140171417A1, “TRICYCLIC COMPOUNDS” (NOVARTIS AG, priority 2012, published 2014)
# Molecular target: T1, CFTR (Homo sapiens, UniProt P13569)
# T1 construct: expressed in transfected cells
# Test: IonWorks Quattro assay (CFTR Inhibitor Assay), whole-cell planar patch clamp
# Type: cell-based
# Details: inward current (−100 mV); CHO cells stably expressing WT-CFTR; CFTR activated by 10 μM forskolin; test compound incubated 10 min
# Text: CFTR activity can be quantified by electrophysiology methods, using the whole-cell configuration of the patch clamp technique (Hamill O, Marty A, Neher E, Sakmann B and Sigworth F. ‘Improved patch-clamp techniques for high resolution current recording from cells and cell-free membrane patches.’ Pflugers Archive 1981 391: 85-100). This assay directly measures the currents associated with chloride flow through CFTR channels whilst either maintaining or adjusting the transmembrane voltage. This assay can use either single glass micropipettes or parallel planar arrays to measure CFTR activity from native or recombinant cell systems. Currents measured using parallel planar arrays can be quantified using an appropriately equipped instrument such as the IonWorks Quattro (Molecular Devices Corporation, Sunnyvale, Calif.). The Quattro system can measure CFTR currents from either a single cell per recording well (HT configuration) or alternatively from a population of 64 cells per well (Population Patch Clamp PPC) (Finkel A, Wittel A, Yang N, Handran S, Hughes J, Costantin J. ‘Population patch clamp improves data consistency and success rates in the measurement of ionic currents.’ J Biomol Screen. 2006 August; 11 (5):488-96).
# Chinese hamster ovary (CHO) cells stably expressing WT-CFTR channels were used for the IonWorks Quattro experiments. Cells were maintained at 37° C. in 5% v/v CO2 at 100% humidity in MEM alpha medium supplemented with 10% (v/v) FCS, 100 U/mL Penicillin/Streptomycin, and 100 μg/L methotrexate. For experiments, cells were grown in 225 cm^2 tissue culture flasks until almost confluent. Cells were removed from the flask using trypsin-EDTA and resuspended in extracellular recording solution for immediate experimentation.
# Cells, at a density of 1.5-2 million per mL, were placed on the Quattro system, added to the planar patch plate and seals allowed to establish for 5-10 mins. After assessing seal resistances (typically >50 MΩ), whole-cell access was obtained by perforation with 100 μg/mL amphotericin B. Baseline currents were measured by a pre-compound scan obtained by application of a voltage ramp from −100 to +100 mV. CFTR was activated by the addition of 10 μM forskolin to each of the 384 wells of the patch plate. After 5 min incubation the post-compound 1 currents were measured, again by application of a voltage ramp from −100 to +100 mV. Test compounds, diluted from 10 mM stocks in DMSO in extracellular solution were then added to the patch plate and were incubated for a further 10 min. The post-compound 2 currents were measured by the application of the same voltage ramp from −100 to +100 mV. The inhibition of CFTR was determined from the difference in current between the forskolin addition (post-compound 1) and the test compound (post-compound 2). This was determined at both −100 mV and +100 mV which represents the inward and outward current respectively.
# Extracellular solution (ECS): 145 mM NaCl, 4 mM CsCl, 5 mM D-glucose, 10 mM TES, 1 mM CaCl2, 1 mM MgCl2, pH 7.4 NaOH
# Intracellular solution (ICS): 113 mM L-Aspartic acid, 113 mM CsOH, 27 mM CsCl, 1 mM NaCl, 1 mM MgCl2, 1 mM EGTA, 10 mM TES. pH 7.2 with CsOH. Filter sterilized before use.
# T1 sequence (P13569 whole entry): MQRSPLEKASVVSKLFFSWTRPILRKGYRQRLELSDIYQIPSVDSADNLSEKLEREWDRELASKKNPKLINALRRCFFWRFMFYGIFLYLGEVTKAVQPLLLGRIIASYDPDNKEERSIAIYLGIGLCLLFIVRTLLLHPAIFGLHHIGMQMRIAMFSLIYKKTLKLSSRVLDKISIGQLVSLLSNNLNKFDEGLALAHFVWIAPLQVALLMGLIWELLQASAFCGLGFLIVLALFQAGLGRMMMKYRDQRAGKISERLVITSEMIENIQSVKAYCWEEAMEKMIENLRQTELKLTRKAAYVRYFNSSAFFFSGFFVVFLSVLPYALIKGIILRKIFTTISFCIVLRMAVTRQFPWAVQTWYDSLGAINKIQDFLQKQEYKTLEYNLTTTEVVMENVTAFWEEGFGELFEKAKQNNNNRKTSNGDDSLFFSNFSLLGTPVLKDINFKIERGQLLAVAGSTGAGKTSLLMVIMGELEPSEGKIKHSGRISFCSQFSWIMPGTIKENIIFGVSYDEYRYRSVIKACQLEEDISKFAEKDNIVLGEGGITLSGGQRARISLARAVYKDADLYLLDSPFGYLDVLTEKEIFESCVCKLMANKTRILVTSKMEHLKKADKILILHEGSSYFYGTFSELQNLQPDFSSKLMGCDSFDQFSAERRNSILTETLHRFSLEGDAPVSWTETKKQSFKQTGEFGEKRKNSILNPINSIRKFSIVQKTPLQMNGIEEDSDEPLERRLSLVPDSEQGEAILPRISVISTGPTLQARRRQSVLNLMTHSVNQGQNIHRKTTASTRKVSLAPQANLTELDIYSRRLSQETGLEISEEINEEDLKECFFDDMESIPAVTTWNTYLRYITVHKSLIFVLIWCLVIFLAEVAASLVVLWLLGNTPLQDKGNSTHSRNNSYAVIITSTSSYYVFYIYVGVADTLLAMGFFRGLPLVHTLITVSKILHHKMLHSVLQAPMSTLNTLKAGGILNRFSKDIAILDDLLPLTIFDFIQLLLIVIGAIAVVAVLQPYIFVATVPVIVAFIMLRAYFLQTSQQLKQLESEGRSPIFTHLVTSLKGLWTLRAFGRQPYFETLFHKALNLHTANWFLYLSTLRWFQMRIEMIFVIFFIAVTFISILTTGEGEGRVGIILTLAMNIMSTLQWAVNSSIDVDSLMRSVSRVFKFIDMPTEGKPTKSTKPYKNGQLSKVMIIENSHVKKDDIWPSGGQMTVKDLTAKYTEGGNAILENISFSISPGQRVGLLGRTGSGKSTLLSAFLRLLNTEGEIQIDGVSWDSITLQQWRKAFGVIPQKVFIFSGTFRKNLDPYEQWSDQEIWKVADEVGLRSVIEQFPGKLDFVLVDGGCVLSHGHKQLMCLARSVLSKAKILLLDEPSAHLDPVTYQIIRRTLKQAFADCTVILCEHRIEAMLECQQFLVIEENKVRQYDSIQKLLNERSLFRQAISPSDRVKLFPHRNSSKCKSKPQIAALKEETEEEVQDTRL
row,Structure (SMILES),IC50 [µM]
1,"Cc1ccc([C@@H]2C[C@H](C)Cn3c(-c4cccc(F)c4)c4c(=O)n(C)c(=O)n(C)c4c32)o1 (single isomer, unassigned) [Example 7.5b, 5-(3-fluorophenyl)-1,3,8-trimethyl-10-(5-methylfuran-2-yl)-7,8,9,10-tetrahydropyrimido[4,5-a]indolizine-2,4(1H,3H)-dione]",2.18
2,"Cc1cccc(-c2c3c(=O)n(C)c(=O)n(C)c3c3n2CCCC3c2nc(C)cs2)c1 (single isomer, unassigned) [Example 8.2, 1,3-dimethyl-10-(4-methylthiazol-2-yl)-5-m-tolyl-7,8,9,10-tetrahydropyrimido[4,5-a]indolizine-2,4(1H,3H)-dione]",0.29
3,"Cc1csc(C2CCCn3c(-c4cccc(C#N)c4)c4c(=O)n(C)c(=O)n(C)c4c32)n1 (single isomer, unassigned) [Example 9.1, 3-(1,3-dimethyl-10-(4-methylthiazol-2-yl)-2,4-dioxo-1,2,3,4,7,8,9,10-octahydropyrimido[4,5-a]indolizin-5-yl)benzonitrile]",0.29
4,"Cn1c(=O)c2c(-c3cccc(F)c3)n3c(c2n(C)c1=O)[C@H](c1ccc(Cl)o1)S[C@@H](CO)C3 (single isomer, unassigned) [Example 12.1b, 10-(5-chlorofuran-2-yl)-5-(3-fluorophenyl)-8-(hydroxymethyl)-1,3-dimethyl-7,8-dihydro-1H-pyrimido[4′,5′:3,4]pyrrolo[2,1-c][1,4]thiazine-2,4(3H,10H)-dione]",0.18
5,"Cn1c(=O)c2c(-c3ccccc3)n3c(c2n(C)c1=O)C(c1ccc(Cl)o1)SC(CO)C3 (single isomer, unassigned) [Example 12.a, 10-(5-chlorofuran-2-yl)-8-(hydroxymethyl)-1,3-dimethyl-5-phenyl-7,8-dihydro-1H-pyrimido[4′,5′:3,4]pyrrolo[2,1-c][1,4]thiazine-2,4(3H,10H)-dione]",0.2
6,"Cn1c(=O)c2c(-c3ccccc3)n3c(c2n(C)c1=O)C(c1ccc(Cl)o1)SC(CO)C3 (single isomer, unassigned) [Example 12.b, 10-(5-chlorofuran-2-yl)-8-(hydroxymethyl)-1,3-dimethyl-5-phenyl-7,8-dihydro-1H-pyrimido[4′,5′:3,4]pyrrolo[2,1-c][1,4]thiazine-2,4(3H,10H)-dione]",0.54
7,"Cn1c(=O)c2c(-c3nc(CO)cs3)n3c(c2n(C)c1=O)C(c1nc(Cl)cs1)CCC3 (single isomer, unassigned) [Example 13.1a, 10-(4-chlorothiazol-2-yl)-5-(4-(hydroxymethyl)thiazol-2-yl)-1,3-dimethyl-7,8,9,10-tetrahydropyrimido[4,5-a]indolizine-2,4(1H,3H)-dione]",0.1
8,"Cc1nc(-c2c3c(=O)n(C)c(=O)n(C)c3c3n2CCC[C@H]3c2nc(Cl)cs2)cs1 (single isomer, unassigned) [Example 13.3a, 10-(4-chlorothiazol-2-yl)-1,3-dimethyl-5-(2-methylthiazol-4-yl)-7,8,9,10-tetrahydropyrimido[4,5-a]indolizine-2,4(1H,3H)-dione]",0.09
9,"CN(C)C[C@@H]1Cn2c(-c3ccccc3)c3c(=O)n(C)c(=O)n(C)c3c2[C@@H](c2ccc(Cl)o2)S1 (single isomer, unassigned) [Example 14a, 10-(5-chlorofuran-2-yl)-8-((dimethylamino)methyl)-1,3-dimethyl-5-phenyl-7,8-dihydro-1H-pyrimido[4′,5′:3,4]pyrrolo[2,1-c][1,4]thiazine-2,4(3H,10H)-dione]",0.31
10,"Cn1c(=O)c2c(-c3nc(CO)cs3)n3c(c2n(C)c1=O)[C@H](c1ccc(Cl)o1)SCC3 (single isomer, unassigned) [Example 15, 10-(5-Chlorofuran-2-yl)-5-(4-(hydroxymethyl)thiazol-2-yl)-1,3-dimethyl-7,8-dihydro-1H-pyrimido[4′,5′:3,4]pyrrolo[2,1-c][1,4]thiazine-2,4(3H,10H)-dione]",0.1
11,"Cn1ccc(-c2c3c(=O)n(C)c(=O)n(C)c3c3n2CCSC3c2ccc(Cl)o2)n1 (single isomer, unassigned) [Example 15.11, 10-(5-Chlorofuran-2-yl)-1,3-dimethyl-5-(1-methyl-1H-pyrazol-3-yl)-7,8-dihydro-1H-pyrimido[4′,5′:3,4]pyrrolo[2,1-c][1,4]thiazine-2,4(3H,10H)-dione]",0.13
12,"CCOc1cccc(-c2c3c(=O)n(C)c(=O)n(C)c3c3n2CCSC3c2ccc(Cl)o2)c1 (single isomer, unassigned) [Example 15.12, 10-(5-Chlorofuran-2-yl)-5-(3-ethoxyphenyl)-1,3-dimethyl-7,8-dihydro-1H-pyrimido[4′,5′:3,4]pyrrolo[2,1-c][1,4]thiazine-2,4(3H,10H)-dione]",9.27
13,"COc1cccc(-c2c3c(=O)n(C)c(=O)n(C)c3c3n2CCSC3c2ccc(Cl)o2)c1 (single isomer, unassigned) [Example 15.13, 10-(5-Chlorofuran-2-yl)-5-(3-methoxyphenyl)-1,3-dimethyl-7,8-dihydro-1H-pyrimido[4′,5′:3,4]pyrrolo[2,1-c][1,4]thiazine-2,4(3H,10H)-dione]",0.62
14,"Cc1csc(-c2c3c(=O)n(C)c(=O)n(C)c3c3n2C[C@H](CO)S[C@H]3c2ccc(Cl)o2)n1 (single isomer, unassigned) [Example 17, 10-(5-chlorofuran-2-yl)-8-(hydroxymethyl)-1,3-dimethyl-5-(4-methylthiazol-2-yl)-7,8-dihydro-1H-pyrimido[4′,5′:3,4]pyrrolo[2,1-c][1,4]thiazine-2,4(3H,10H)-dione]",0.1
15,"Cn1ccc(-c2c3c(=O)n(C)c(=O)n(C)c3c3n2C[C@H](CO)S[C@H]3c2ccc(Cl)o2)n1 (single isomer, unassigned) [Example 17.1, 10-(5-Chlorofuran-2-yl)-8-(hydroxymethyl)-1,3-dimethyl-5-(1-methyl-1H-pyrazol-3-yl)-7,8-dihydro-1H-pyrimido[4′,5′:3,4]pyrrolo[2,1-c][1,4]thiazine-2,4(3H,10H)-dione]",0.23
16,"Cc1nc(-c2c3c(=O)n(C)c(=O)n(C)c3c3n2C[C@H](CO)S[C@H]3c2ccc(Cl)o2)cs1 (single isomer, unassigned) [Example 17.2, 10-(5-Chlorofuran-2-yl)-8-(hydroxymethyl)-1,3-dimethyl-5-(2-methylthiazol-4-yl)-7,8-dihydro-1H-pyrimido[4′,5′:3,4]pyrrolo[2,1-c][1,4]thiazine-2,4(3H,10H)-dione]",0.24
17,"Cc1csc(-c2c3c(=O)n(C)c(=O)n(C)c3c3n2C[C@H](CN)S[C@H]3c2ccc(Cl)o2)n1 (single isomer, unassigned) [Example 19, 8-(aminomethyl)-10-(5-chlorofuran-2-yl)-1,3-dimethyl-5-(4-methylthiazol-2-yl)-7,8-dihydro-1H-pyrimido[4′,5′:3,4]pyrrolo[2,1-c][1,4]thiazine-2,4(3H,10H)-dione]",5.38
18,"Cn1c(=O)c2c(-c3cccc(C#N)c3)n3c(c2n(C)c1=O)C(c1nc(Cl)cs1)CC3 (single isomer, unassigned) [Example 20a, 3-(9-(4-chlorothiazol-2-yl)-1,3-dimethyl-2,4-dioxo-2,3,4,7,8,9-hexahydro-1H-pyrimido[4,5-a]pyrrolizin-5-yl)benzonitrile]",0.27
19,"Cc1csc(C2c3c4c(c(-c5cccc(C#N)c5)n3CC2(C)C)c(=O)n(C)c(=O)n4C)n1 (single isomer, unassigned) [Example 21.8, 3-(1,3,8,8-Tetramethyl-9-(4-methylthiazol-2-yl)-2,4-dioxo-2,3,4,7,8,9-hexahydro-1H-pyrimido[4,5-a]pyrrolizin-5-yl)benzonitrile]",1.39
20,"Cn1c(=O)c2c(-c3ccccc3)n3c(c2n(C)c1=O)C(c1nc(Cl)cs1)C(C)(C)C3 (single isomer, unassigned) [Example 21a, 9-(4-chlorothiazol-2-yl)-1,3,8,8-tetramethyl-5-phenyl-8,9-dihydro-1H-pyrimido[4,5-a]pyrrolizine-2,4(3H,7H)-dione]",0.33
